{
  "source": "patent US4777049A",
  "about": "“Constant release system with pulsed release” (priority 1987, dated 1988)",
  "key": {"gonadotropin secretion": {"test_system": "gonadotropin secretion", "details": "Drugs, Vol. 23, 207-226, 1982, cited from earlier work"}, "[1]": {"details": "cited from earlier work"}},
  "note": "Like-named read-outs stand apart in the source and are kept apart here.",
  "data": [
    {"compound": "C[C@]12CC[C@@H]3c4ccc(O)cc4CC[C@H]3[C@@H]1CC[C@@H]2O", "note": "[estradiol]", "values": [
      {"measurement": "effect on gonadotropin secretion", "setting": "gonadotropin secretion; high pulsed doses", "result": "stimulates the ovulating surge"},
      {"measurement": "effect on gonadotropin secretion", "setting": "gonadotropin secretion; low pulsed dose", "result": "inhibits"}
    ]},
    {"compound": "C[C@H]1C[C@@H]2[C@H]([C@@H](O)C[C@@]3(C)[C@H]2CC[C@]3(O)C(=O)CO)[C@@]2(C)C=CC(=O)C=C12", "note": "[methylprednisolone]", "values": [
      {"measurement": "medical effect of pulsed treatment", "setting": "[1]; collagenic and progressing glomerulonephritis", "result": "beneficial medical effect"}
    ]},
    {"compound": "CC[C@H](C)[C@@H]1NC(=O)[C@H](Cc2ccc(O)cc2)NC(=O)[C@@H](N)CSSC[C@@H](C(=O)N2CCC[C@H]2C(=O)N[C@@H](CC(C)C)C(=O)NCC(N)=O)NC(=O)[C@H](CC(N)=O)NC(=O)[C@H](CCC(N)=O)NC1=O", "note": "[oxytocin]", "values": [
      {"measurement": "medical effect of pulsed treatment", "setting": "[1]; induction of labor", "result": "beneficial medical effect"}
    ]},
    {"compound": "CO[C@H]1/C=C/O[C@@]2(C)Oc3c(C)c(O)c4c(O)c(c(/C=N/N5CCN(C)CC5)c(O)c4c3C2=O)NC(=O)/C(C)=C\\C=C\\[C@H](C)[C@H](O)[C@@H](C)[C@@H](O)[C@@H](C)[C@H](OC(C)=O)[C@@H]1C", "note": "[rifampicin]", "values": [
      {"measurement": "medical effect of pulsed treatment", "setting": "[1]; leprosy", "result": "beneficial medical effect"}
    ]},
    {"compound": "CC(C)(C)NCC(O)c1ccc(O)c(CO)c1", "note": "(centres unmarked) [salbutamol]", "values": [
      {"measurement": "solubility", "setting": "physchem; distilled water, water", "result": 275, "unit": "mg/mL"},
      {"measurement": "solubility", "setting": "physchem; saturated sodium chloride solution", "result": 16, "unit": "mg/mL"}
    ]},
    {"compound": "insulin", "values": [
      {"measurement": "medical effect of pulsed treatment", "setting": "[1]; control of hyperglycemia", "result": "beneficial medical effect"}
    ]}
  ]
}
